In ChEMBL document CHEMBL5518181, “Studies of antibacterial activity (in vitro and in vivo) and mode of action for des-acyl tridecaptins (DATs)” (Eur J Med Chem, 2024):
Converted amounts (≈) assume the structure as drawn. The source made the active and inactive calls. No cut-off for these calls is given here.

Tests used:
[1] = Toxicity in naive mouse assessed as drug tolerance at 20 mg/kg, sc administered as single dose every 4 hrs for 24 hrs; assay type: organism-based; conditions: in vivo
Escherichia coli [2] = test: Antibacterial activity against wild-type Escherichia coli ATCC 25922 assessed as inhibition of bacterial growth incubated for 18 hrs; assay type: functional; conditions: read-out: MIC100
Klebsiella pneumoniae = test: Antibacterial activity against wild-type Klebsiella pneumoniae ATCC 13883 assessed as inhibition of bacterial growth incubated for 18 hrs; assay type: functional; conditions: read-out: MIC100
[3] = Lipophilicity, logD of compound at pH 7.4; assay type: physicochemical; conditions: buffer
[4] = Aqueous solubility of compound at pH 4.6; assay type: physicochemical
[5] = Aqueous solubility of compound at pH 7.4; assay type: physicochemical
Escherichia coli [6] = test: Antibacterial activity against Escherichia coli ATCC BAA-2469 expressing NDM-1 assessed as inhibition of bacterial growth incubated for 18 hrs; assay type: functional; conditions: read-out: MIC100
Escherichia coli [7] = test: Antibacterial activity against colistin resistant Escherichia coli NCTC 13846 harboring mcr-1 gene assessed as inhibition of bacterial growth incubated for 18 hrs; assay type: functional; conditions: read-out: MIC100
Escherichia coli [8] = test: Antibacterial activity against Escherichia coli Swiss 7 harboring mcr-1 gene assessed as inhibition of bacterial growth incubated for 18 hrs; assay type: functional; conditions: read-out: MIC100
Escherichia coli [9] = test: Antibacterial activity against Escherichia coli Swiss 9 harboring mcr-1 gene assessed as inhibition of bacterial growth incubated for 18 hrs; assay type: functional; conditions: read-out: MIC100
Morganella morganii = test: Antibacterial activity against Morganella morganii ATCC 25830 assessed as inhibition of bacterial growth incubated for 18 hrs; assay type: functional; conditions: read-out: MIC100
Proteus mirabilis = test: Antibacterial activity against Proteus mirabilis ATCC 7002 assessed as inhibition of bacterial growth incubated for 18 hrs; assay type: functional; conditions: read-out: MIC100
Pseudomonas aeruginosa = test: Antibacterial activity against efflux-deficient Pseudomonas aeruginosa PAO750 assessed as inhibition of bacterial growth incubated for 18 hrs; assay type: functional; conditions: read-out: MIC100
Staphylococcus aureus = test: Antibacterial activity against wild type Staphylococcus aureus USA300 assessed as inhibition of bacterial growth incubated for 18 hrs; assay type: functional; conditions: read-out: MIC100
[10] = Drug uptake in Escherichia coli ATCC 25922 assessed as fold increase in cellular drug concentration at 10 uM incubated for 10 mins by LC-MS/MS analysis; assay type: ADME
[11] = Drug localization in membrane fraction of Escherichia coli ATCC 25922 at 10 uM incubated for 10 mins by LC-MS/MS analysis; assay type: ADME, cell membranes
[12] = Drug uptake in Proteus mirabilis ATCC 7002 whole cells at 10 uM incubated for 10 mins by LC-MS/MS analysis; assay type: ADME
[13] = Drug uptake in Pseudomonas aeruginosa PAO1 whole cells assessed as log10 increase in drug accumulation at 10 uM incubated for 10 mins by LC-MS/MS analysis relative to H-(D-Val)-(D-Dab)-Gly-(D-Ser)-(D-Trp)-Ser-Dab-(D-Dab)-Phe-Glu-Val-(D-allo-Ile)-Ala-OH; assay type: ADME
[14] = Drug uptake in Acinetobacter baumannii ATCC 19606 whole cells assessed as log10 increase in drug accumulation at 10 uM incubated for 10 mins by LC-MS/MS analysis relative to H-(D-Val)-(D-Dab)-Gly-(D-Ser)-(D-Trp)-Ser-Dab-(D-Dab)-Phe-Glu-Val-(D-allo-Ile)-Ala-OH; assay type: ADME
Cell membrane [15] = test: Induction of membrane permeabilization in Escherichia coli ATCC 25922 at 4 to 10 ug/ml measured after 30 mins by Sytox Green labelling based microscopic analysis; assay type: cell membranes; conditions: dose 4-10 µg/ml
Cell membrane [16] = test: Induction of membrane permeabilization in Klebsiella pneumoniae ATCC 13883 at 4 to 10 ug/ml measured after 30 mins by Sytox Green labelling based microscopic analysis; assay type: cell membranes; conditions: dose 4-10 µg/ml

Q: For COLISTIN, which Activity [1] is on record?
A: The Activity was “Non-Toxic”.

Q: Which results are given for CCCCCCCC(=O)N[C@@H](C(=O)N[C@H](CCN)C(=O)NCC(=O)N[C@H](CO)C(=O)N[C@H](Cc1c[nH]c2ccccc12)C(=O)N[C@@H](CO)C(=O)N[C@@H](CCN)C(=O)N[C@H](CCN)C(=O)N[C@@H](Cc1ccccc1)C(=O)N[C@@H](CCC(=O)O)C(=O)N[C@H](C(=O)N[C@@H](C(=O)N[C@@H](C)C(=O)O)[C@@H](C)CC)C(C)C)C(C)C?
A: MIC (Escherichia coli [2]): 2 µg/mL (≈ 1.32 µM); MIC (Klebsiella pneumoniae): 4 µg/mL (≈ 2.63 µM); logD [3]: 2.24; solubility [4]: 88 mg/mL (≈ 57900 µM); solubility [5]: 30 mg/mL (≈ 19700 µM); MIC (Escherichia coli [6]): 1 µg/mL (≈ 0.658 µM); MIC (Escherichia coli [7]): 1 µg/mL (≈ 0.658 µM); MIC (Escherichia coli [8]): 1 µg/mL (≈ 0.658 µM); MIC (Escherichia coli [9]): 0.5 µg/mL (≈ 0.329 µM); MIC (Morganella morganii): > 32 µg/mL; MIC (Proteus mirabilis): 32 µg/mL (≈ 21 µM); MIC (Pseudomonas aeruginosa): > 32 µg/mL; MIC (Staphylococcus aureus): 32 µg/mL (≈ 21 µM); fold change (FC) [10]: 30; Drug uptake [11]: Active; Drug uptake [12]: Active; log(activity) [13]: 2; log(activity) [14]: 2; Activity (Cell membrane [15]): Active; Activity (Cell membrane [16]): Active
